From publication PMC7617869, “Molecular glues that inhibit deubiquitylase activity and inflammatory signaling” (Nature Structural & Molecular Biology, 2025)
Several values for one entry are separate records, joined by “and”; a condition that tells them apart may be missing. Identical values can stand only once.

Experiments:
[1] = system: IFNAR1 cell surface levels in MCF10A BRCC45 R137A cells; assay: MCF10A BRCC45 R137A IFNAR1 cell surface levels (FACS); type: cell-based, human; conditions: for IFNAR1 cell surface levels (Fig. 5g): BRCC45 KO + BRCC45 R137A, IFN + compound, No IFN about 100; for IFNAR1 cell surface levels: BRCC45 R137A cells, IFN 50 ng/ml, 5 μM, 90 min
Procedure: To study the direct effect of BRISC DUB inhibitors, IFNAR1 surface levels were measured using flow cytometry (FACS) analysis. For this purpose, MCF10A WT and MCF10A BRCC45 KO cells expressing […]
BRCC45 WT or BRCC45 R137A were used. […]
minutes prior to the addition of 50 ng/mL of hIFN-Iα for various time points (45 minutes and 90 minutes).
After IFN treatment, cells were dissociated from plate using cell dissociation Buffer (ThermoFisher Scientific, #13150016) and were stained with LIVE/DEAD™ Fixable Violet Dead Cell Stain Kit, for 405 nm excitation (ThermoFisher Scientific, #L34963) for 30 minutes, as per the kit protocol. The cells were then washed using FACS buffer (DPBS, 1% BSA, 2 mM EDTA, 0.09% sodium azide) and transferred to 96-well round bottom plates. Resuspended cells were divided into three repeats for each sample, each was surface stained for 1 hour at 4 °C with: 1. Human IFN-alpha/beta R1 Antibody (R&D systems, #MAB245), 2. Mouse IgG1 Isotype Control (R&D systems, #MAB002), 3. FACS buffer (control cells).
Following incubation, cells were washed once with FACS buffer and were labelled for 30 minutes at 4 °C with either Biotin-SP-conjugated AffiniPure Donkey Anti-Mouse IgG (H+L) (Jackson Immunoresearch Laboratories) for samples 1 and 2 or with FACS buffer for sample 3. Cells were washed twice with FACS buffer and were labelled for 15 minutes at 4 °C with either R-Phycoerythrin-conjugated Streptavidin (Jackson Immunoresearch Laboratories) for samples 1 and 2 or with FACS buffer for sample 3. Cells were washed 3 times with FACS buffer and were analysed by FACS (MACSQuant, Miltenyi Biotec). For each sample from group 1 the Geo mean fluorescence intensity (MFI) of its isotype sample was reduced. IFNAR1 cell surface percentage was calculated by 100*(MFI

[2] = system: IFNAR1 surface levels in THP-1 cells; assay: THP-1 IFNAR1 surface levels (FACS); type: cell-based, human; conditions: for IFNAR1 surface levels (Fig. 5h): IFN + compound, No IFN = 100; for IFNAR1 surface levels: THP-1, hIFNα2 25 ng/ml, 4 μM, 16 h
Procedure: (§1) THP-1 in vitro experiments
(§2) THP-1-DualTM cells (InvivoGen), derived from a human monocytic cell line, isolated from a patient with acute monocytic leukaemia, were cultured as per manufacturer’s guidance. Cells were seeded at 1x10^6 cells/mL in RPMI1640 media containing 10% fetal bovine serum (FBS), 1% penicillin-streptomycin (PS) (Gibco Laboratories) with DMSO (0.1%) (control) or in media containing JMS-175- […]
(§3) ng/mL) (Merck Life Science), ODN 2216 (1 µM) (Miltenyi Biotec), or Poly:IC (1 µg/mL) (InvivoGen).
(§4) Tofacitinib (Cambridge Biosciences) at 0.4 µM was used for comparison against a known JAK inhibitor.
(§5) Cells were centrifuged at 300 g for 5 minutes. Supernatant was removed and subjected to simultaneous study of the NF -κB pathway, by monitoring the activity of secreted alkaline phosphatase reporter (SEAP), and the IRF pathway, by assessing the activity o f a secreted Lucia luciferase using QUANTI - Blue ™ Solution and QUANTI -Luc™ 4 Lucia/Gaussia (InvivoGen), respectively, as per manufacturer’s instructions. Pelleted cells were used for FACS analysis using IFNα/β R1 APC-conjugated antibody or isotype control (Biotechne, FAB245A and IC002A), or unstained staining procedure with and without Zombie GreenTM (Biolegend). Samples were analysed using CytoFlex LX (Beckman) (50,000 live cells per condition). Median fluorescence intensity for APC channel gated on single cell live cells was analysed and compared as a percentage to control (no stimulation condition). […]

THP-1 cells = assay: THP-1 live cell percentage; type: cell-based; conditions: THP-1, hIFNα2 25 ng/mL, 4 μM compound, 16 h
Procedure: as §1, §2, §3, §4, §5

[3] = system: CXCL10 secretion in SSc PBMCs; assay: SSc PBMC CXCL10 ELISA, unstimulated; type: cell-based, human; conditions: for CXCL10 secretion: basal, nonstimulated SSc PBMCs, 16 h
Procedure: PBMCs in vitro experiments
Peripheral blood mononuclear cells (PBMCs) from healthy and SSc donors were separated using density gradient method (Leucosep™, Greiner Bio-One International) from EDTA anticoagulated peripheral blood; isolated cells were washed twice by PBS. PBMCs were then incubated in RPMI1640 […]
For healthy PBMCs, cells were stimulated with 20 ng/mL of IFN (+/- compounds or DMSO). For SSc PBMCs, cells were in basal conditions with no additional IFN stimulation. Cells were centrifuged at 300 g for 10 minutes. Supernatant was removed and subjected to R&D Systems DY266 Human CXCL10/IP-10 DuoSet ELISA (Biotechne) in duplicates, according to manufacturer’s guidance. Concentration of CXCL10 was determined according to a 4-parameter

percentage of live cells (THP-1 cells) [%] | SMILES | IFNAR1 cell surface levels (Fig. 5g) [1] | IFNAR1 surface levels (Fig. 5h) [2] | IFNAR1 surface levels [2] | CXCL10, SSc donor PBMCs (Fig. 6d) ([3]; SSc donor ID 68) | CXCL10, SSc donor PBMCs (Fig. 6d) ([3]; SSc donor ID 78) | CXCL10, SSc donor PBMCs (Fig. 6d) ([3]; SSc donor ID 79) | CXCL10, SSc donor PBMCs (Fig. 6d) ([3]; SSc donor ID 142) | CXCL10, SSc donor PBMCs (Fig. 6d) ([3]; SSc donor ID 205) | CXCL10, SSc donor PBMCs (Fig. 6d) ([3]; SSc donor ID 219) | CXCL10, SSc donor PBMCs (Fig. 6d) ([3]; SSc donor ID 244) | IFNAR1 cell surface levels [1] | CXCL10 secretion [3]
98.52 | Cn1cc(NC(=O)c2c(Cl)cccc2Cl)c(C(=O)NC2CCN(C(=O)c3c(Cl)cccc3Cl)CC2)n1 [AP-5-145] | 55.396 and 54.5623 and 54.7013 | 65.8984 and 82.4668 and 66.4812 | no significant reduction | 80 | 67.741 | 66.2158 | 86.6322 | 91.7468 | 90.6622 | 57.7808 | – | –
98.05 | O=C(NC1CCNCC1)c1nn(C(=O)c2c(Cl)cccc2Cl)cc1NC(=O)c1c(Cl)cccc1Cl [JMS-175-2] | 50.1158 and 49.56 and 49.1431 | 48.4567 and 45.7565 and 33.0649 | reduction in IFNAR1 surface levels | 66.733 | 0 | 0 | 7.1246 | 83.3318 | 3.3086 | 0 | not reduced | reduced CXCL10 secretion
97.99 | O=C(NC1C2CNCC21)c1nn(C(=O)c2c(Cl)cccc2Cl)cc1NC(=O)c1c(Cl)cccc1Cl (stereo not shown) [FX-171-C] | 49.6989 and 47.3367 and 48.4484 | 56.2651 and 56.964 and 56.0526 | reduction in IFNAR1 surface levels | 72.6224 | 6.824 | 0 | 86.6599 | 108.154 | 48.1818 | 0 | not reduced | reduced CXCL10 secretion
